Reference: patent EP0463173B1, “HAIR TONIC AND DRESSING COMPOSITION” (OTSUKA PHARMACEUTICAL CO., LTD., priority 1990, dated 1991)

Test system: shaved mice
Test: Hair grow-promoting effect in shaved mice (method of Kubo et al.), hair grow score
Format: in vivo, ddy male mice
Conditions: 0.2 ml of 0.2 % solution in 75 % ethanol applied to shaved back once a day, score 0-4, 15 mice
Experimental: According to the method of Kubo et al. (Yakugaku Zasshi 108 (10) P971-978 (1988)), an experiment was conducted using six weeks old ddy male mice. Depilatory cream was applied to the back of mice, and after 8 minutes, wiped off with absorbent cotton soaked with hot water at 40°C to remove hair at 4 to 5 cm². The next day, those mice with no injury and undepilated hair were selected and used as shaved mice. Each experimental group consisted of 15 mice.
Each 0.2 ml of a solution to be tested and a control solution were uniformly applied to the shaved part of mice with a brush once a day for 18 days.
Evaluation of the hair grow-promoting effect was conducted by evaluating a hair grow score at two day intervals for 18 days and testing a significance difference with Willcoxon Rank sum test. The following hair grow score standards were employed: 0: Completely no growth of hair is observed with naked eye 1: Recovery up to 25 % of normal state 2: Recovery up to 50 % of normal state 3: Recovery up to 75 % of normal state 4: Recovery up to nearly normal state and each standard score were further subdivided into three stages and hair grow score was obtained for each mouse.
The samples used for testing for effect were as follows: Control: 75 % etanol solution Preparation of the present invention: 0.2 % 6-[4-(1-cyclohexyl-1,2,3,4-tetrazol-5-yl)butoxy]-3,4-dihydrocarbostyril in 75 % ethanol solution The results are shown in Table 1.

O=C1CCc2cc(OCCCCc3nnnn3C3CCCCC3)ccc2N1 [Prep. of invention, 6-[4-(1-cyclohexyl-1,2,3,4-tetrazol-5-yl)butoxy]-3,4-dihydrocarbostyril]
mean hair grow score ± S.E. (day 8 of treatment): 0.12±0.07 | mean hair grow score ± S.E. (day 10 of treatment): 0.17±0.07 | mean hair grow score ± S.E. (day 12 of treatment): 0.72±0.17 | mean hair grow score ± S.E. (day 14 of treatment): 1.45±0.23 | mean hair grow score ± S.E. (day 16 of treatment): 2.25±0.27 | mean hair grow score ± S.E. (day 18 of treatment): 2.58±0.28
